Columns and labels:
human IGF-IR = target: T1, human IGF-IR (Homo sapiens, UniProt P08069); assay: IGF-1R tyrosine kinase assay, GST-IGF-1R; assay type: biochemical; details: Table 5; read-out: IGF-1R, IC50 class
T1 construct: expresses the amino acid region 950-1337 of the mature peptide cytoplasmic domain of the human IGF-IR; made in house; host or cells: baculovirus (Bac-to-Bac)
Text: The inhibition of IGF-1R and Ins-R can be determined as follows: The baculovirus donor vector pfbgx3IGFIRcd is used to generate a recombinant baculovirus that expresses the amino acid region 950-1337 of the mature peptide cytoplasmic domain of the human IGF-IR. To generate the cDNA fragment encoding the amino acid region 919-1343 of the intra-cytoplasmic kinase domain of the human insulin receptor, pC5hInsR is used. The fragments of the human IGF-IR and Ins-R are cloned, expressed and small-scale purified as a factor Xa-cleavable glutathione-S-transferase (GST)-fusion protein using the Bac-to-Bac™ system (GIBCO BRL) of recombinant baculovirus generation. Virus containing media is collected from the transfected cell culture and used for infection to increase its titer. Virus containing media obtained after two rounds of infection is used for large-scale protein expression. Cell extracts are prepared and loaded onto a glutathione-Sepharose (Pharmacia) column. After washing, the GST-tagged proteins are then eluted with a glutathione-containing buffer. Purified protein is stored at −70° C. in elution buffer. Tyrosine protein kinase assays with purified GST-IGF-1R and GST-ins-R are carried in a final volume of 30 μl containing 20 mM Tris-HCl, pH 7.6, 10 mM MgCl2, 0.01 mM Na3VO4, 1% DMSO, 1 mM DTT, 3 μg/ml poly(Glu,Tyr) 4:1 and 10 μM ATP (γ-[^33P]-ATP 0.1 μCi). The assay is performed in 96-well plates at ambient temperature for 20 min and terminated by addition of 25 μl 0.05 M EDTA pH 7.0. An aliquot of 40 μl is spotted with a multichannel dispenser on Whatman P81 membranes mounted in a Millipore Microtiter filter manifold connected to a low vacuum source. After elimination of liquid, the membrane is transferred to a sequence of 4 washing baths containing 0.5% H3PO4 and one with EtOH (shaking incubation for 10 min each), dried, mounted onto a Hewlett Packard TopCount manifold added 10 μl Microscint® and counted. Compounds of formula (I) show up to 90% inhibition of Ins-R at 10,000 nM, preferably between 60-90% inhibition. The inhibition of Tek can be determined as follows: The procedure of the expression, purification and assay these kinases has been described. Fabbro et al., Pharmacol. Ther. 82(2-3) 293-301 (1999). In brief, the glutathione S-transferase (GST) gene from the pAcG1 vector (Pharmingen) is excised with EcoRV and EcoRI and inserted into the cloning site of the Fast-Bac baculoviral vector (GIBCO) creating a 5530 bp vector with N-terminal cloning sites derived from the pAcG1 fusion vector (FBG0). The C-terminal cloning site may be any cloning site (from the Fast-Bac vector) downstream of the N-terminal cloning site used. N-terminally GST-fused (pAcG1, Pharmingen) KDR, Flt-1, Flk-1, Tek and PDGFR-β kinase domains are obtained from ProQinase, Freiburg, Germany. Tek is recloned into the FBG1 vector by EcoRI excision and ligation into EcoRI digested FBG1 (FBG1-Tek). The coding sequences for the whole cytoplasmic domain of c-Kit (aa 544-976) and c-Fms (aa 538-972) are amplified by PCR from human uterus and from human bone marrow cDNA libraries (Clontech), respectively. The amplified DNA fragments are fused to GST by cloning them into FBG1 as BamHI-EcoRI insertions, to yield FBG1-c-Kit and FBG1-c-Fms. Tek is recloned into the FBG0 transfer vector by EcoRI excision and ligation into EcoRI digested FBG0 (FBG-Tie2/Tek). FGFR-1 and c-met kinase domains are obtained by PCR from human A431 cells. N-terminal primers contain an overhanging EcoRI site, while C-terminal primers contain a XhoI site to aid cloning into the transfer vectors. After digestion of both the PCR fragments and FBG0 the cleavage products are gel-purified and ligated together to form the kinase constructs (FBG-Met, FBG-FGFR-1).

HER-1 = HER-1 (Homo sapiens, UniProt P00533); assay: HER-1 kinase inhibition; assay type: biochemical; details: Table 5; read-out: HER-1, IC50 class
HER-1, sequence (P00533 25-1210, species assumed): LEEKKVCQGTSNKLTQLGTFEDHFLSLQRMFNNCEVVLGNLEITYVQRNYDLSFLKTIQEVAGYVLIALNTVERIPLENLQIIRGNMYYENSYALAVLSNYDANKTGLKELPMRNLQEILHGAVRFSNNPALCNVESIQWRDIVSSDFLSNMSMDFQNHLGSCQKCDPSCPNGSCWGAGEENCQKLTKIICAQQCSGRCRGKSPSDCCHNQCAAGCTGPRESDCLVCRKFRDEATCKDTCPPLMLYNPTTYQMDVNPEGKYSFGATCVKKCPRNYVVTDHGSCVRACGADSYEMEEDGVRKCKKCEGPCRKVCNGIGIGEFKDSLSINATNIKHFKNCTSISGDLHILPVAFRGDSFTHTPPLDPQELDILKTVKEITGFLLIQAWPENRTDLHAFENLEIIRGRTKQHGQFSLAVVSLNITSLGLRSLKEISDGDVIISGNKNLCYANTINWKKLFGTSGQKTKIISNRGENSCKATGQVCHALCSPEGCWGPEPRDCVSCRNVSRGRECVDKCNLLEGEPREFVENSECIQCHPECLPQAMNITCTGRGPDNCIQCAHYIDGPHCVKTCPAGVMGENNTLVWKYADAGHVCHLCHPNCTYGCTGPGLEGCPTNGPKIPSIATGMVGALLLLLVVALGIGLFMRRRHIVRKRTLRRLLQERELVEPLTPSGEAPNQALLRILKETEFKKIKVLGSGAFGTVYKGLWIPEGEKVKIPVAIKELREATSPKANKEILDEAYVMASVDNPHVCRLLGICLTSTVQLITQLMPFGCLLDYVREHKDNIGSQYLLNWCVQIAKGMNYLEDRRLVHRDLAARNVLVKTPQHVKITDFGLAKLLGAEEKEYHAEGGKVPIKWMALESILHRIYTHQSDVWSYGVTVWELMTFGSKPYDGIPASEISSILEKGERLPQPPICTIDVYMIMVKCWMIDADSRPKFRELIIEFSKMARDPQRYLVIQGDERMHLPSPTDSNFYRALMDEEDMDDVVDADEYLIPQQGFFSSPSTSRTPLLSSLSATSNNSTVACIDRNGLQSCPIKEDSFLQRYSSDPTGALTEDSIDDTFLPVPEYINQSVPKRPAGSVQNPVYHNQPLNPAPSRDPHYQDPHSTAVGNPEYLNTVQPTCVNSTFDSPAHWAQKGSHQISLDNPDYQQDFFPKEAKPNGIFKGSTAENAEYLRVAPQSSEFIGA

T1 sequence (P08069 980-1367): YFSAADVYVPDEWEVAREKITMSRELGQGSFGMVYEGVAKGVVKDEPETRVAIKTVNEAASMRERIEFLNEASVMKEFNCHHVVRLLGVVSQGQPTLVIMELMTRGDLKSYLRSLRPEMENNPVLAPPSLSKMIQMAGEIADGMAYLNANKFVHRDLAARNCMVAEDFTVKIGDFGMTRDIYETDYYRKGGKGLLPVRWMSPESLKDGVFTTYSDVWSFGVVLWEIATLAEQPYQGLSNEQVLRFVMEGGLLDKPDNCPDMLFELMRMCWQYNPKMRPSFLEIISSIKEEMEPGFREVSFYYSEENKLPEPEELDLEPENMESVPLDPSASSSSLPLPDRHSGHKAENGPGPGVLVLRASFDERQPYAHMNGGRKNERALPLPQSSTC

SMILES | IC50 (human IGF-IR) | IC50 (HER-1)
Cc1nc2c(-c3cccc(N4CCN(CCO)CC4)c3)cnn2c(N)c1-c1ccc(F)c(Cl)c1 [Example 100, 2-(4-{3-[7-Amino-6-(3-chloro-4-fluoro-phenyl)-5-methyl-pyrazolo[1,5-a]pyrimidin-3-yl]-phenyl}-piperazin-1-yl)-ethanol] | > 10 µM | > 10 µM
Cc1nc2c(-c3cccc(N4CC[N+](C)([O-])CC4)c3)cnn2c(N)c1-c1ccc(F)cc1 [Example 106, 6-(4-Fluoro-phenyl)-5-methyl-3-[3-(4-methyl-4-oxy-piperazin-1-yl)-phenyl]-pyrazolo[1,5-a]pyrimidin-7-ylamine] | > 10 µM | > 10 µM
Cc1nc2c(-c3cccc([N+]4([O-])CC[N+](C)([O-])CC4)c3)cnn2c(N)c1-c1ccc(F)cc1 (stereo not drawn) [Example 107, 6-(4-Fluoro-phenyl)-5-methyl-3-[3-(4-methyl-1,4-dioxy-piperazin-1-yl)-phenyl]-pyrazolo[1,5-a]pyrimidin-7-ylamine] | > 10 µM | > 10 µM

Further lines, results first:

IC50 (human IGF-IR) | IC50 (HER-1) | SMILES
> 10 µM | > 10 µM | Cc1nc2c(-c3cccc(N4CCN(CCO)CC4)c3)cnn2c(N)c1-c1ccc(F)c(F)c1 [Example 101, 2-(4-{3-[7-Amino-6-(3,4-difluoro-phenyl)-5-methyl-pyrazolo[1,5-a]pyrimidin-3-yl]-phenyl}-piperazin-1-yl)-ethanol]
> 10 µM | > 10 µM | Cc1nc2c(-c3cccc(N4CCC(N5CCCC5)CC4)c3)cnn2c(N)c1-c1cccc(Cl)c1 [Example 102, 6-(3-Chloro-phenyl)-5-methyl-3-[3-(4-pyrrolidin-1-yl-piperidin-1-yl)-phenyl]-pyrazolo[1,5-a]pyrimidin-7-ylamine]
> 10 µM | > 10 µM | Cc1nc2c(-c3cccc(N4CCC(N5CCCC5)CC4)c3)cnn2c(N)c1-c1ccc(F)cc1 [Example 103, 6-(4-Fluoro-phenyl)-5-methyl-3-[3-(4-pyrrolidin-1-yl-piperidin-1-yl)-phenyl]-pyrazolo[1,5-a]pyrimidin-7-ylamine]

Source: patent publication US20090099167A1, “Organic compounds” (Novartis Institutes for Biomedical Research, priority 2004, published 2009)
